pIC50: −log10 of the molar value.
Columns and labels:
human IL-1β = test: IL-1β assay: suppression of IL-1β production by LPS-stimulated PBMC (sandwich ELISA); type: cell-based; settings: LPS 1 μg/ml, 72 hours at 37° C.
Method: (§1) Peripheral blood mononuclear cells (herein referred as PBMC), in response to stimulation by lipopolysaccharide (LPS), a gram-negative bacterial endotoxin, produce various […], in particular human TNF-α and IL-1β. The inhibition of the activation of PBMC can be measured by the level of suppression of the production of TNF-α or IL-1β by PBMC in response to stimulation by LPS.
(§2) Such inhibition measurement was performed as follows: PBMC were isolated from heparinized peripheral blood (Buffy coat) by density gradient centrifugation. LPS is then added to the PMBC suspension in complete medium (10^6 cells/ml) at a final concentration of 1 μg/ml. The pteridine derivative to be tested was added at different dilution levels, and the cells were incubated at 37° C. for 72 hours. The supernatants were collected, and TNF-α or IL-1β concentrations were measured with respectively an anti-TNF antibody or an anti-IL-1β antibody in a sandwich ELISA (Duo Set ELISA human TNFα, commercially available from R&D Systems, United Kingdom). The colorimetric reading of the ELISA was measured by a Multiskan RC plate reader (commercially available from ThermoLabsystems, Finland) at 450 nm (reference wavelength: 690 nm). Data analysis was performed with Ascent software 2.6. (also from ThermoLabsystems, Finland): a standard curve (recombinant human TNFα) was drawn and the amount (pg/ml) of each sample on the standard curve was determined.
(§3) The % inhibition of human TNF-α production or human IL-1β was calculated using the formula: % inhibition=[…] wherein: min.: pg/ml in culture medium without test compound, and
(§4) max.: pg/ml in culture medium+LPS without test compound.

C3H mice = test: Protection against lethal toxic shock (LPS injection); type: in vivo
C57BL/6 male mice = test: Protection against a lethal dose of TNF-α (TNF-α induced shock); type: in vivo; settings: for Animals surviving 48 hours after TNF-α administration: TNF-α 10 μg i.v., 20 mg/kg/day i.p. three injections, total animals 9, 6, 6
Method: A model of TNF-α induced shock in C57BL/6 male mice was performed as follows. Animals from the control group received an Intravenous administration of a lethal dose of TNF-α (10 μg) in the tail. Animals from the test group received three intraperitoneous injections of a pteridine derivative (20 mg/kg/day) respectively 48 hours, 24 hours and immediately before an intravenous injection of TNF-α (10 μg).

[1] = system: melanoma (B16BL/6) in C57BL6 (B6) mice; test: Reduction of tumor growth while inhibiting TNF-α toxicity, melanoma tumor model; type: in vivo
Method: A tumor model of melanoma (B16BL/6) in C57BL6 (B6) mice was performed as follows. On day 1, a group of 18 B6 mice were injected with 1.5×10^6 B16BL/6 melanosarcoma cells. The group was further divided into the following subgroups 3 days after the tumor cells injection: • a first control sub-group of 6 mice received vehicle (physiological solution) 3 times a week starting on day 3; • a second control subgroup of 5 mice received TNF-α (15 μg) on day 5 and, for surviving animals, TNF-α was again administered 3 times a week for 2 weeks; • a test sub-group of 7 mice intraperitoneously received the pteridine derivative of example 24 at a dose of 20 mg/kg on each of days 3, 4 and 5; the latter third injection on day 5 occurred 2 hours before a first TNF-α intravenous injection (15 μg). Then the test compound (20 mg/kg/day) and TNF-α (15 μg/day) were administered each subcutaneously 3 times a week for 2 weeks.

human TNF-α = test: TNF-α assay: suppression of TNF-α production by LPS-stimulated PBMC (sandwich ELISA); type: cell-based; settings: LPS 1 μg/ml, 72 hours at 37° C.
Method: as §1, §2, §3, §4

[2] = group of 16 C3H mice, 100 μg LPS i.p., 20 mg/kg/day i.p. for 2 days

SMILES	pIC50 (human TNF-α)	also measured
COc1ccc(-c2cnc3nc(N)nc(N4CCOCC4)c3n2)cc1OC [Example 24, 2-amino-4-morpholino-6-(3,4-dimethoxyphenyl)pteridine]		pIC50 (human IL-1β; Homo sapiens): 5.26; animals permanently survived the challenge of a LPS lethal dose (C3H mice; [2]): 14; animals showing a significantly prolonged survival (C3H mice; [2]): 2; prolonged survival (C3H mice; the 2 animals that did not survive permanently, controls die within 1-3 days): 5 days; Animals surviving 48 hours after TNF-α administration (C57BL/6 male mice): 7; body temperature (C57BL/6 male mice; followed for 48 hours after TNF-α 10 μg i.v., 20 mg/kg/day i.p. 48 h, 24 h and immediately before, control 28.2° C.): 30.1 °C; average tumor size (largest diameter multiplied by smallest diameter) ([1]; after two weeks treatment together with TNF-α, first control group 439 mm^2): 144 mm^2; animals of the test sub-group survived ([1]; out of 7 tumor bearing mice, 20 mg/kg plus TNF-α 15 μg, second control group all died): 5
CC(C)Oc1nc(N)nc(N)c1N [Example 59, 2,5,6-triamino-4-isopropoxy-pyrimidine]	5.10	
CC(C)Oc1nc(N)nc2ncc(Cl)nc12 [Example 65, 2-amino-6-chloro-4-isopropoxypteridine]	5.04	
CCOc1nc(N)nc2ncc(-c3ccccc3OC)nc12 [Example 67, 2-amino-6-(o-methoxyphenyl)-4-ethoxy-pteridine]	5.00	
CCOc1nc(N)nc2ncc(-c3cccc(OC)c3)nc12 [Example 68, 2-amino-6-(m-methoxyphenyl)-4-ethoxy-pteridine]	5.00	
CCOc1nc(N)nc2ncc(-c3cccs3)nc12 [Example 72, 2-amino-6-(2-thienyl)-4-ethoxy-pteridine]	5.07	
CCOc1nc(N)nc2ncc(-c3ccc(F)cc3)nc12 [Example 77, 2-amino-6-(p-fluorophenyl)-4-ethoxy-pteridine]	5.09	
CCOc1nc(N)nc2ncc(-c3ccc(F)c(C)c3)nc12 [Example 80, 2-amino-6-(3-methyl-4-fluorophenyl)-4-ethoxy-pteridine]	5.17	
CCOc1nc(N)nc2ncc(-c3ccc(OC)c(OC)c3)nc12 [Example 83, 2-amino-6-(3,4-dimethoxyphenyl)-4-ethoxy-pteridine]	5.18	
Cc1ccc(-c2cnc3nc(N)nc(OC(C)C)c3n2)cc1C [Example 85, 2-amino-6-(3,4-dimethylphenyl)-4-isopropoxypteridine]		pIC50 (human IL-1β; Homo sapiens): < 4.40
CC(C)Oc1nc(N)nc2ncc(-c3ccc(F)c(Cl)c3)nc12 [Example 87, 2-amino-6-(3-chloro-4-fluorophenyl)-4-isopropoxypteridine]	5.12	
CCOc1ccc(-c2cnc3nc(N)nc(OC(C)C)c3n2)cc1 [Example 92, 2-amino-6-(p-ethoxyphenyl)-4-isopropoxypteridine]	5.00	
CC(C)Oc1nc(N)nc2ncc(-c3ccsc3)nc12 [Example 94, 2-amino-6-(3-thienyl)-4-isopropoxypteridine]	5.12	
CC(=O)c1ccc(-c2cnc3nc(N)nc(OC(C)C)c3n2)cc1 [Example 97, 2-amino-6-(p-acetylphenyl)-4-isopropoxypteridine]	5.04	
COc1ccc(-c2cnc3nc(N)nc(OC(C)C)c3n2)cc1OC [Example 98, 2-amino-6-(3,4-dimethoxyphenyl)-4-isopropoxypteridine]	5.46	pIC50 (human IL-1β; Homo sapiens): < 4.40; Animals surviving 48 hours after TNF-α administration (C57BL/6 male mice): 3
COc1ccc(-c2cnc3nc(N)nc(N4CC=CCC4)c3n2)cc1OC [Example 119, 2-amino-4-(1,2,3,6-tetrahydropyridinyl)-6-(3,4-dimethoxyphenyl)pteridine]		pIC50 (human IL-1β): 4.82; Animals surviving 48 hours after TNF-α administration (C57BL/6 male mice): 3
COc1ccc(-c2cnc3nc(NCc4cccs4)nc(N)c3n2)cc1OC [Example 143, 2-(2-thienylmethylamino)-4-amino-6-(3,4-dimethoxyphenyl)pteridine]	5.00	
COc1ccc(-c2cnc3nc(NCc4ccccc4)nc(N)c3n2)cc1OC [Example 145, 2-benzylamino-4-amino-6-(3,4-dimethoxyphenyl)pteridine]	5.03	
Nc1nc(N2CCOCC2)c2nc(-c3ccc(NC(=O)COc4ccccc4)cc3)cnc2n1 [Example 160, 2-amino-4-morpholino-6-(4-phenoxyacetylaminophenyl)pteridine]	5.31	
Nc1nc(N2CCOCC2)c2nc(-c3ccc(NC(=O)c4ccncc4)cc3)cnc2n1 [Example 166, 2-amino-4-morpholino-6-(4-isonicotinoylaminophenyl)pteridine]	5.36	
Nc1nc(N2CCOCC2)c2nc(-c3cccc(NC(=O)c4ccccc4)c3)cnc2n1 [Example 171, 2-amino-4-morpholino-6-(3-benzoylaminophenyl)pteridine]	5.37	
Nc1nc(N2CCOCC2)c2nc(-c3cccc(NS(=O)(=O)c4ccccc4)c3)cnc2n1 [Example 172, 2-amino-4-morpholino-6-(3-benzensulfonylaminophenyl)pteridine]	6.30	
Nc1nc(N2CCOCC2)c2nc(-c3cccc(NC(=O)c4ccncc4)c3)cnc2n1 [Example 174, 2-amino-4-morpholino-6-(3-isonicotinoylaminophenyl)pteridine]	5.14	
Nc1nc(N2CCOCC2)c2nc(-c3cccc(NC(=O)C4CCCCC4)c3)cnc2n1 [Example 175, 2-amino-4-morpholino-6-(3-cyclohexanoylaminophenyl)pteridine]	5.30	
Nc1nc(N2CCOCC2)c2nc(-c3cccc(NC(=O)COCc4ccccc4)c3)cnc2n1 [Example 179, 2-amino-4-morpholino-6-(3-benzyloxyacetylaminophenyl)pteridine]	5.11	
CCS(=O)(=O)Nc1cccc(-c2cnc3nc(N)nc(N4CCOCC4)c3n2)c1 [Example 180, 2-amino-4-morpholino-6-(3-ethylsulfonylaminophenyl)pteridine]	5.00	
CCOc1ccc(-c2cnc3nc(N)nc(N4CCOCC4)c3n2)cc1 [Example 186, 2-amino-4-morpholino-6-(4-ethoxyphenyl)pteridine]	5.00	
CCCOc1ccc(-c2cnc3nc(N)nc(N4CCOCC4)c3n2)cc1 [Example 190, 2-amino-4-morpholino-6-(4-propoxy-phenyl)pteridine]	5.00	
COCCOc1ccc(-c2cnc3nc(N)nc(N4CCOCC4)c3n2)cc1 [Example 193, 2-amino-4-morpholino-6-(4-(2-methoxyethoxy)-phenyl)pteridine]	5.14	
